Data taken from PubChem BioAssay AID258 (DTP/NCI, 2004).
Where “and” joins values, the source holds several entries; their conditions need not be identical. Identical values can stand only once. Inconclusive results and toxic doses are left out. Rule for the calls: active = survival T/C of 150% or more; inactive = T/C below 125% in these data.

Test system: CD2F1 mice, L1210 leukemia sc, survival T/C
Assay: NCI In Vivo Anticancer Drug Screen. Data for tumor model L1210 Leukemia (subcutaneous) in CD2F1 (CDF1) mice
Settings: endpoint: median survival time, higher = longer survival
In short: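 T/C ratio: treated-group survival or tumor size over vehicle-control group measurement, in mice carrying transplanted tumors.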

Measured: T/C

O=NN(CCCl)C(=O)NCCCl
active: dose: 1.8 mg/kg/injection, schedule: Q01DX Z (sc), vehicle: saline 243 % of control | dose: 2.0 mg/kg/injection, schedule: Q01DX009 (ip), vehicle: saline + alcohol 159 % of control and 192 % of control | dose: 3.0 mg/kg/injection, schedule: Q01DX Z (sc), vehicle: saline 512 % of control | dose: 4.0 mg/kg/injection, schedule: Q01DX009 (ip), vehicle: saline + alcohol 187 % of control and 219 % of control | dose: 5.0 mg/kg/injection, schedule: Q01DX Z (sc), vehicle: saline 300 % of control | dose: 5.0 mg/kg/injection, schedule: Q07DX Z (sc), vehicle: saline 150 % of control | dose: 5.3 mg/kg/injection, schedule: Q01DX009 (sc), vehicle: saline + alcohol 314 % of control | dose: 5.33 mg/kg/injection, schedule: Q01DX009 (ip), vehicle: saline + alcohol 222 % of control | dose: 5.33 mg/kg/injection, schedule: Q01DX009 (sc), vehicle: saline + alcohol 203 % of control | dose: 7.0 mg/kg/injection, schedule: Q01DX009 (ip), vehicle: saline + alcohol 167 % of control and 184 % of control | dose: 8.0 mg/kg/injection, schedule: Q01DX009 (ip), vehicle: saline + alcohol 179 % of control and 243 % of control | dose: 8.4 mg/kg/injection, schedule: Q01DX001 (sc), vehicle: saline 212 % of control | dose: 8.4 mg/kg/injection, schedule: Q01DX017 (ip), vehicle: none 333 % of control | dose: 8.4 mg/kg/injection, schedule: Q01DX017 (sc), vehicle: saline 316 % of control | dose: 8.4 mg/kg/injection, schedule: Q01DX Z (sc), vehicle: saline 256 % of control | dose: 8.4 mg/kg/injection, schedule: Q07DX Z (sc), vehicle: saline 293 % of control | dose: 12.0 mg/kg/injection, schedule: Q01DX009 (sc), vehicle: saline + alcohol 151 % of control and 205 % of control | dose: 14.0 mg/kg/injection, schedule: Q01DX001 (sc), vehicle: saline 300 % of control | dose: 14.0 mg/kg/injection, schedule: Q01DX017 (ip), vehicle: none 588 % of control | dose: 14.0 mg/kg/injection, schedule: Q01DX017 (sc), vehicle: saline 388 % of control | dose: 14.0 mg/kg/injection, schedule: Q01DX Z (sc), vehicle: saline 212 % of control | dose: 14.0 mg/kg/injection, schedule: Q07DX Z (sc), vehicle: saline 600 % of control | dose: 16.0 mg/kg/injection, schedule: Q01DX009 (sc), vehicle: saline + alcohol 160 % of control | dose: 23.0 mg/kg/injection, schedule: Q01DX001 (sc), vehicle: saline 343 % of control | dose: 23.0 mg/kg/injection, schedule: Q01DX017 (ip), vehicle: none 731 % of control | dose: 23.0 mg/kg/injection, schedule: Q01DX017 (sc), vehicle: saline 733 % of control | dose: 23.0 mg/kg/injection, schedule: Q07DX Z (sc), vehicle: saline 331 % of control | dose: 39.0 mg/kg/injection, schedule: Q01DX001 (sc), vehicle: saline 243 % of control | dose: 39.0 mg/kg/injection, schedule: Q01DX017 (ip), vehicle: none 511 % of control | dose: 39.0 mg/kg/injection, schedule: Q01DX017 (sc), vehicle: saline 500 % of control | dose: 39.0 mg/kg/injection, schedule: Q07DX Z (sc), vehicle: saline 200 % of control | dose: 65.0 mg/kg/injection, schedule: Q01DX001 (sc), vehicle: saline 162 % of control
inactive: dose: 0.25 mg/kg/injection, schedule: Q01DX009 (ip), vehicle: saline + alcohol 108 % of control | dose: 0.25 mg/kg/injection, schedule: Q01DX009 (sc), vehicle: saline + alcohol 100 % of control and 107 % of control | dose: 0.5 mg/kg/injection, schedule: Q01DX009 (ip), vehicle: saline + alcohol 121 % of control | dose: 0.5 mg/kg/injection, schedule: Q01DX009 (sc), vehicle: saline + alcohol 112 % of control and 98 % of control | dose: 0.88 mg/kg/injection, schedule: Q01DX009 (ip), vehicle: saline + alcohol 121 % of control | dose: 0.9 mg/kg/injection, schedule: Q01DX009 (ip), vehicle: saline + alcohol 112 % of control | dose: 1.0 mg/kg/injection, schedule: Q01DX009 (sc), vehicle: saline + alcohol 108 % of control and 124 % of control | dose: 1.8 mg/kg/injection, schedule: Q01DX009 (ip), vehicle: saline + alcohol 120 % of control | dose: 14.0 mg/kg/injection, schedule: Q01DX009 (ip), vehicle: saline + alcohol 116 % of control | dose: 32.0 mg/kg/injection, schedule: Q01DX009 (ip), vehicle: saline + alcohol 98 % of control | dose: 32.0 mg/kg/injection, schedule: Q01DX009 (sc), vehicle: saline + alcohol 102 % of control and 124 % of control

C[C@@](O)(/C=C/[C@H]1CC=CC(=O)O1)[C@@H](C[C@@H](O)\C=C/C=C\C=C\CO)OP(=O)(O)O
active: dose: 3.13 mg/kg/injection, schedule: Q01DX009 (ip), vehicle: other 157 % of control | dose: 6.25 mg/kg/injection, schedule: Q01DX009 (ip), vehicle: other 197 % of control
inactive: dose: 0.78 mg/kg/injection, schedule: Q01DX009 (ip), vehicle: other 104 % of control | dose: 1.56 mg/kg/injection, schedule: Q01DX009 (ip), vehicle: other 116 % of control

N[C@H](C(=O)O)[C@@H]1CC(Cl)=NO1
inactive: dose: 2.0 mg/kg/injection, schedule: Q01DX009 (sc), vehicle: saline 116 % of control

O=C(O)c1cc(=O)[nH]c(=O)[nH]1
inactive: dose: 300.0 mg/kg/injection, schedule: Q01DX Z (sc), vehicle: saline 100 % of control

FC(F)(F)c1nc2nc(Cl)c(Cl)nc2[nH]1
inactive: dose: 30.0 mg/kg/injection, schedule: Q04DX003 (ip), vehicle: saline with Tween-80 104 % of control | dose: 44.0 mg/kg/injection, schedule: Q04DX003 (ip), vehicle: saline with Tween-80 106 % of control | dose: 66.0 mg/kg/injection, schedule: Q04DX003 (ip), vehicle: saline with Tween-80 106 % of control

S=c1nc[nH]c2c1ncn2C1CCCC1
inactive: dose: 108.0 mg/kg/injection, schedule: Q01DX Z (sc), vehicle: methylcellulose (MC) 100 % of control | dose: 180.0 mg/kg/injection, schedule: Q01DX Z (sc), vehicle: methylcellulose (MC) 100 % of control | dose: 300.0 mg/kg/injection, schedule: Q01DX Z (sc), vehicle: methylcellulose (MC) 100 % of control | dose: 500.0 mg/kg/injection, schedule: Q01DX Z (sc), vehicle: methylcellulose (MC) 100 % of control | dose: 833.0 mg/kg/injection, schedule: Q01DX Z (sc), vehicle: methylcellulose (MC) 100 % of control | dose: 1388.0 mg/kg/injection, schedule: Q01DX Z (sc), vehicle: methylcellulose (MC) 100 % of control

CCOC(=O)C(CC(C)C)NC(=O)C(Cc1ccc(N(CCCl)CCCl)cc1)NC(C)=O (stereo not drawn)
inactive: dose: 1.0 mg/kg/injection, schedule: Q01DX009 (sc), vehicle: Klucel (hydroxypropylcellulose) (HPC) 102 % of control and 103 % of control | dose: 2.0 mg/kg/injection, schedule: Q01DX009 (sc), vehicle: Klucel (hydroxypropylcellulose) (HPC) 103 % of control and 98 % of control | dose: 4.0 mg/kg/injection, schedule: Q01DX009 (sc), vehicle: Klucel (hydroxypropylcellulose) (HPC) 104 % of control and 105 % of control | dose: 8.0 mg/kg/injection, schedule: Q01DX009 (sc), vehicle: Klucel (hydroxypropylcellulose) (HPC) 107 % of control and 98 % of control | dose: 16.0 mg/kg/injection, schedule: Q01DX009 (sc), vehicle: Klucel (hydroxypropylcellulose) (HPC) 103 % of control and 109 % of control | dose: 28.5 mg/kg/injection, schedule: Q01DX009 (sc), vehicle: Klucel (hydroxypropylcellulose) (HPC) 110 % of control | dose: 32.0 mg/kg/injection, schedule: Q01DX009 (sc), vehicle: Klucel (hydroxypropylcellulose) (HPC) 100 % of control and 112 % of control | dose: 42.7 mg/kg/injection, schedule: Q01DX009 (sc), vehicle: Klucel (hydroxypropylcellulose) (HPC) 121 % of control | dose: 64.0 mg/kg/injection, schedule: Q01DX009 (sc), vehicle: Klucel (hydroxypropylcellulose) (HPC) 118 % of control and 124 % of control | dose: 113.8 mg/kg/injection, schedule: Q01DX009 (sc), vehicle: Klucel (hydroxypropylcellulose) (HPC) 113 % of control | dose: 128.0 mg/kg/injection, schedule: Q01DX009 (sc), vehicle: Klucel (hydroxypropylcellulose) (HPC) 113 % of control and 122 % of control | dose: 170.7 mg/kg/injection, schedule: Q01DX009 (sc), vehicle: Klucel (hydroxypropylcellulose) (HPC) 120 % of control
active: dose: 384.0 mg/kg/injection, schedule: Q01DX009 (sc), vehicle: Klucel (hydroxypropylcellulose) (HPC) 158 % of control

Nc1nc2n[nH]nc2c(=O)[nH]1
inactive: dose: 50.0 mg/kg/injection, schedule: Q01DX009 (sc), vehicle: saline 122 % of control | dose: 75.0 mg/kg/injection, schedule: Q01DX009 (sc), vehicle: saline 114 % of control
